Laboratory results published in PubChem BioAssay (NCI).
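Method: 48-hour compound exposure of cells in 96-well plates, five concentrations, linear interpolation of endpoints. TGI is the concentration that stops growth completely.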

Assays:
Experiment in all cases: NCI tumour cell line growth inhibition, 48 h
786-0 renal = system: 786-0 renal
A498 renal = system: A498 renal
A549 NSCLC = system: A549 NSCLC
ACHN renal = system: ACHN renal
BT-549 breast = system: BT-549 breast
CAKI-1 renal = system: CAKI-1 renal
CCRF-CEM leukemia = system: CCRF-CEM leukemia
COLO 205 colon = system: COLO 205 colon
DU-145 prostate = system: DU-145 prostate
EKVX NSCLC = system: EKVX NSCLC
HCC-2998 colon = system: HCC-2998 colon
HCT-116 colon = system: HCT-116 colon
HL-60(TB) leukemia = system: HL-60(TB) leukemia
HOP-62 NSCLC = system: HOP-62 NSCLC
HOP-92 NSCLC = system: HOP-92 NSCLC
HS 578T breast = system: HS 578T breast
HT29 colon = system: HT29 colon
IGROV1 ovarian = system: IGROV1 ovarian
K-562 leukemia = system: K-562 leukemia
KM12 colon = system: KM12 colon
M14 melanoma = system: M14 melanoma
MALME-3M melanoma = system: MALME-3M melanoma
MCF7 breast = system: MCF7 breast
MDA-MB-231 breast = system: MDA-MB-231 breast
MDA-MB-435 = system: MDA-MB-435
MDA-N = system: MDA-N
MOLT-4 leukemia = system: MOLT-4 leukemia
NCI-H226 lung = system: NCI-H226 lung
NCI-H23 lung = system: NCI-H23 lung
NCI-H460 lung = system: NCI-H460 lung
NCI-H522 lung = system: NCI-H522 lung
NCI/ADR-RES ovarian = system: NCI/ADR-RES ovarian
OVCAR-3 ovarian = system: OVCAR-3 ovarian
OVCAR-4 ovarian = system: OVCAR-4 ovarian
OVCAR-5 ovarian = system: OVCAR-5 ovarian
PC-3 prostate = system: PC-3 prostate
RPMI-8226 leukemia = system: RPMI-8226 leukemia
RXF 393 renal = system: RXF 393 renal
SF-268 CNS = system: SF-268 CNS
SF-295 CNS = system: SF-295 CNS
SK-MEL-2 melanoma = system: SK-MEL-2 melanoma
SK-MEL-28 melanoma = system: SK-MEL-28 melanoma
SK-MEL-5 melanoma = system: SK-MEL-5 melanoma
SK-OV-3 ovarian = system: SK-OV-3 ovarian
SN12C renal = system: SN12C renal
SNB-19 CNS = system: SNB-19 CNS
SNB-75 CNS = system: SNB-75 CNS
SR leukemia = system: SR leukemia
SW-620 colon = system: SW-620 colon
T-47D breast = system: T-47D breast
TK-10 renal = system: TK-10 renal
U251 CNS = system: U251 CNS
UACC-257 melanoma = system: UACC-257 melanoma
UACC-62 melanoma = system: UACC-62 melanoma
UO-31 renal = system: UO-31 renal

`Cc1ccc(N=C2C(=O)C3=C(OC(C)(C)CC3)c3ccccc32)cc1` gave a TGI (786-0 renal) of 3180 nM, a TGI (A498 renal) of 3810 nM and a TGI (A549 NSCLC) of 3690 nM. It also gave a TGI (ACHN renal) of 1540 nM, a TGI (BT-549 breast) of 3460 nM and a TGI (CAKI-1 renal) of 3160 nM. The TGI (CCRF-CEM leukemia) was 10100 nM, the TGI (COLO 205 colon) was 3290 nM and the TGI (DU-145 prostate) was 2590 nM. The TGI (EKVX NSCLC) was 3350 nM, the TGI (HCC-2998 colon) was 3360 nM and the TGI (HCT-116 colon) was 1050 nM. For the same molecule, the TGI (HL-60(TB) leukemia) was 3210 nM, the TGI (HOP-62 NSCLC) was 1760 nM and the TGI (HOP-92 NSCLC) was 3200 nM. The TGI (HS 578T breast) was > 23200 nM, the TGI (HT29 colon) was 1150 nM and the TGI (IGROV1 ovarian) was 2030 nM. For the same molecule, the TGI (K-562 leukemia) was 860 nM, the TGI (KM12 colon) was 4010 nM and the TGI (M14 melanoma) was 1590 nM. For the same molecule, the TGI (MALME-3M melanoma) was 1700 nM, the TGI (MCF7 breast) was 1230 nM and the TGI (MDA-MB-231 breast) was 4100 nM. The TGI (MDA-MB-435) was 346 nM, the TGI (MDA-N) was 335 nM and the TGI (MOLT-4 leukemia) was 3080 nM. The TGI (NCI-H226 lung) was > 20400 nM, the TGI (NCI-H23 lung) was 6880 nM and the TGI (NCI-H460 lung) was 3960 nM. For the same molecule, the TGI (NCI-H522 lung) was 3000 nM, the TGI (NCI/ADR-RES ovarian) was 1750 nM and the TGI (OVCAR-3 ovarian) was 589 nM. The TGI (OVCAR-4 ovarian) was 2180 nM, the TGI (OVCAR-5 ovarian) was 3500 nM and the TGI (PC-3 prostate) was 3520 nM. The TGI (RPMI-8226 leukemia) was 933 nM, the TGI (RXF 393 renal) was 3120 nM and the TGI (SF-268 CNS) was 6370 nM. It also gave a TGI (SF-295 CNS) of 2700 nM, a TGI (SK-MEL-2 melanoma) of 3310 nM and a TGI (SK-MEL-28 melanoma) of 4690 nM. It also gave a TGI (SK-MEL-5 melanoma) of 2280 nM, a TGI (SK-OV-3 ovarian) of 3100 nM and a TGI (SN12C renal) of 1730 nM. For the same molecule, the TGI (SNB-19 CNS) was 2260 nM, the TGI (SNB-75 CNS) was 2510 nM and the TGI (SR leukemia) was 1600 nM. For the same molecule, the TGI (SW-620 colon) was 2140 nM, the TGI (T-47D breast) was 1370 nM and the TGI (TK-10 renal) was 4860 nM. It also gave a TGI (U251 CNS) of 1910 nM, a TGI (UACC-257 melanoma) of 1720 nM and a TGI (UACC-62 melanoma) of 2880 nM. For the same molecule, the TGI (UO-31 renal) was 1960 nM.
